{
  "source": "patent US6858707B1",
  "about": "“Hypersensitive response elicitor fragments which are active but do not elicit a hypersensitive response” (EDEN Bioscience Corporation, priority 1998, dated 2005)",
  "molecules": {"B1": {"name": "hypersensitive response elicitor polypeptide or protein derived from Erwinia amylovora: elicitor from Erwinia amylovora, amino acid sequence SEQ ID NO: 23 (protein, listed as Erwinia amylovora)", "chain": "MSLNTSGLGASTMQISIGGAGGNNGLLGTSRQNAGLGGNSALGLGGGNQNDTVNQLAGLLTGMMMMMSMMGGGGLMGGGLGGGLGNGLGGSGGLGEGLSNALNDMLGGSLNTLGSKGGNNTTSTTNSPLDQALGINSTSQNDDSTSGTDSTSDSSDPMQQLLKMFSEIMQSLFGDGQDGTQGSSSGGKQPTEGEQNAYKKGVTDALSGLMGNGLSQLLGNGGLGGGQGGNAGTGLDGSSLGGKGLQNLSGPVDYQQLGNAVGTGIGMKAGIQALNDIGTHRHSSTRSFVNKGDRAMAKEIGQFMDQYPEVFGKPQYQKGPGQEVKTDDKSWAKALSKPDDDGMTPASMEQFNKAKGMIKRPMAGDTGNGNLQARGAGGSSLGIDAMMAGDAINNMALGKLGAA"}, "B2": {"name": "Fragment 19: amino acids 137-204 of SEQ ID NO: 23, internal fragment (protein, listed as Erwinia amylovora)", "chain": "STSQNDDSTSGTDSTSDSSDPMQQLLKMFSEIMQSLFGDGQDGTQGSSSGGKQPTEGEQNAYKKGVTD"}, "B3": {"name": "HrpZ Fragment 190-294: amino acids 190-294 of HrpZ (SEQ ID NO: 31), calmodulin-binding peptide fusion, crude preparation (protein, listed as Pseudomonas syringae)", "chain": "DIIGQQLGNQQSDAGSLAGTGGGLGTPSSFSNNSSVMGDPLIDANTGPGDSGNTRGEAGQLIGELIDRGLQSVLAGGGLGTPVNTPQTGTSANGGQSAQDLDQLL", "modifications": "calmodulin-binding peptide fusion"}},
  "key": {"[1]": {"test_system": "tomato seeds (variety, Marglobe)", "assay": "13 amino acid peptide: tomato seedling growth after seed soak", "format": "in vivo", "procedure": "The synthesized peptide was resuspended in 10 ml of 5 mM potassium phosphate buffer and, then, diluted to 1 and 100 ng/ml with the same buffer. About 100 tomato seeds (variety, Marglobe) were submerged in 20 ml of peptide solution overnight. The soaked seeds were planted in an 8 inch pot with artificial soil. Seeds soaked in the buffer without the peptide were used as a control. After seedlings emerged and the first two true leaves fully expanded, the height of the tomato seedlings was recorded."}, "[2]": {"test_system": "tobacco and other tested plants", "assay": "13 amino acid peptide: HR in tobacco and other tested plants", "format": "in vivo"}, "parsley cells": {"test_system": "parsley cells", "settings": "H+/Ca2+ influxes, K+/Cl− effluxes, active oxygen production, SAR gene induction, phytoalexin accumulation; cited from earlier work"}, "[3]": {"test_system": "tomato (Lycopersicon spp. cv. Marglobe)", "assay": "Induction of growth enhancement (GE/PGE), tomato seed soak", "format": "in vivo", "settings": "for PGE ht>buffer: oligopeptides, Table 5, tomato height vs buffer", "procedure": "Sixty tomato (Lycopersicon spp. cv. […] The next morning, the sixty seeds were sewn in three pots and 12-15 days later and again 18-20 days later the heights of the 10 tallest tomato plants per pot were measured and compared with the heights of the control plants treated only with phosphate buffer. Analyses were done on the heights to determine if there was a significant difference in the height of the plants treated with the truncated proteins compared with the buffer control, and thereby determine whether the proteins induced growth enhancement."}, "TMV [4]": {"test_system": "TMV", "assay": "Induction of systemic acquired resistance (SAR), TMV lesions on tobacco", "format": "in vivo, Nicotiana tabacum", "settings": "oligopeptides, Table 5; reduction in TMV lesions vs buffer control"}, "[5]": {"settings": "cited from earlier work"}, "[6]": {"test_system": "tobacco (Nicotiana tabacum v. Xanthi) leaves", "assay": "Induction of HR in tobacco by hrpN truncated proteins", "format": "in vivo", "settings": "large scale purified protein; concentration down to which HR is elicited in tobacco; — = no HR", "procedure": "A 1.5 ml aliquot from the 50 ml cultures grown for small scale purification of the truncated proteins was centrifuged at 14,000 rpm for four minutes and re-suspended in an equal volume of 5 mM potassium phosphate buffer, pH 6.8. The cell suspension was sonicated for ca. 30 seconds then diluted 1:2 and 1:10 with phosphate buffer. Both dilutions plus the neat cell lysate were infiltrated into the fourth to ninth leaves of 10-15 leaf tobacco plants by making a hole in single leaf panes and infiltrating the bacterial lysate into the intercellular leaf space using a syringe without a needle. The HR response was recorded 24-48 hr post infiltration. Tobacco (Nicotiana tabacum v. Xanthi) seedlings were grown in an environmental chamber at 20-25° C. with a photoperiod of 12-h light/12-h dark and ca. 40% RH. Cell lysate was used for the initial HR assays (in order to screen the truncated proteins for HR activity) as the small scale urea purification yielded very little protein which was denatured due to the purification process.\nThe full length positive control protein elicited HR down to only 5-7 μg/ml. […] This false HR was likely due to an affinity of the imidazole used in the purification process to bind to one or several of the background proteins, thereby not completely dialyzing out."}, "TMV [7]": {"test_system": "TMV", "assay": "Induction of systemic acquired resistance (SAR), TMV lesions on tobacco", "format": "in vivo, Nicotiana tabacum", "settings": "tobacco sprayed with 20 μg/ml; reduction in TMV lesions vs buffer control; listed as 19", "procedure": "Three tobacco (Nicotiana tabacum cv. Xanthi) plants with 8-12 leaves (ca. 75 day old plants) were used in the assay. One leaf of the tobacco plants was covered up and the rest of the leaves were sprayed with ca. 50 ml of a 20 μg/ml solution of the truncated proteins diluted with 5 mM potassium phosphate buffer. Five to seven days later two leaves (the unsprayed leaf and the sprayed leaf opposite and just above the unsprayed leaf) were inoculated with 20 μl of a 1.8 μg/ml solution of TMV along with a pinch of diatomaceous earth by rubbing the mixture along the top surface of the leaves. The TMV entered the plants through tiny lesions made by the diatomaceous earth. Ca. 3-4 days post TMV inolucation, the number of TMV lesions was counted on both leaves compared with the number of lesions on the negative control buffer treated leaves. Analyses were done to determine the efficacy of reducing the number of TWV lesions by the protein fragents compared to the buffer control. Percentage of efficacy was calculated as: Reduction in TMV lesions (% efficacy)=100×(1−mean # of lesions on treated leaves/mean # of lesions on buffer control leaves)."}, "tobacco leaves": {"test_system": "tobacco leaves", "assay": "HR test of HrpZ fragment preparations in tobacco leaves", "format": "in vivo", "design": "key to HR elicitation: +, elicits HR in tobacco leaves; −, no HR in tobacco leaves", "procedure": "Amino acid fragments 152-294 and 190-294 were chosen for further analysis and characterization. It was expected that the fragment 152-294 contained a domain that elicited the HR, while fragment 190-294 contained no domain that elicited the HR. The cultures were spun down, and the bacteria resuspended in 40 ml of 10 mM Tris pH 8.0. Twenty μl of antifoam and 40 μl of 200 mM PMSF were added, and the bacteria was sonicated to break open the cells. The bacterial debris was removed by centrifugation, and the supernatant was placed in a boiling water bath for 10 min. The precipitate was removed by centrifugation and the supernatant, a crude protein preparation, was retained for tests.\nFifteen μl of each supernatant was run on a gel and stained to determine if the protein was present. It was estimated that about five times as much of the 152-294 fragment was present as the 190-294 fragment. Several dilutions of each preparation were infiltrated into tobacco leaves on two plants for HR tests (Table 7)."}, "TMV [8]": {"test_system": "TMV", "assay": "HrpZ fragments: induced resistance to TMV in tobacco", "format": "in vivo", "settings": "% reduction in TMV lesions in unsprayed leaf of tobacco; 152-294 preparation diluted 40-fold, 190-294 diluted 8-fold", "procedure": "(§1) The fragment preparations were then tested for inducing resistance to TMV and for growth enhancement. Due to the difference in concentration of the HrpZ fragments, the 152-294 preparation was diluted 40-fold and the 190-294 preparation was diluted 8-fold. […] In contrast, the 152-294 aa fragment reduced the number of TMV lesions by only 55%. As also shown in Table 8, plants treated with the 152-294 aa fragment grew 4.64% more than buffer treated plants, while plants treated with the 190-294 aa fragment grew 2.62% more than the buffer treated plants."}, "tomato": {"test_system": "tomato", "assay": "HrpZ fragments: growth enhancement (PGE)", "format": "in vivo", "settings": "% greater height than buffer sprayed plants; 152-294 preparation diluted 40-fold, 190-294 diluted 8-fold", "procedure": "To test whether non-HR eliciting fragments derived from HrpZ, the hypersensitive response elicitor from Pseudomonas syringae pv. syringae, is able to induce disease resistance, several fragment constructs were made and the expressed fragment proteins were tested for HR elicitation and disease resistance induction in tobacco and growth promotion in tomato.\nas §1"}},
  "note": "“And” between values parts separate entries of the source, which are not always exact repeats. Identical values can stand only once.",
  "data": [
    {"molecule": "NH2-Val-Trp-Asn-Gln-Pro-Val-Arg-Gly-Phe-Lys-Val-Tyr-Glu-COOH (H-VWNQPVRGFKVYE-OH; listed as Phytophthora megasperma) [13 amino acid peptide, oligopeptide derived from the 42 kDa glycoprotein elicitor of Phytophthora megasperma]", "values": [
      {"measurement": "% Change", "setting": "[1]; height increase vs buffer, 100 ng/ml peptide", "result": 12.6, "unit": "%"},
      {"measurement": "Height of seedlings (cm)", "setting": "[1]; individual tomato seedlings, seeds soaked overnight in 100 ng/ml peptide, listed as Peptide Solution", "result": "6.5 cm (5×) and 6.0 cm (5×)"},
      {"measurement": "Average (cm)", "setting": "[1]; mean seedling height, 100 ng/ml peptide", "result": 6.25, "unit": "cm"},
      {"measurement": "HR elicitation", "setting": "[2]", "result": "not able to elicit the HR"},
      {"measurement": "defense response in parsley cells", "setting": "parsley cells", "result": "sufficient to elicit a complex defense response"}
    ]},
    {"molecule": "oligo 121-150: synthesized oligopeptide, amino acids 121-150 of SEQ ID NO: 23 (TTSTTNSPLDQALGINSTSQNDDSTSGTDS; listed as Erwinia amylovora)", "values": [
      {"measurement": "PGE ht>buffer", "setting": "[3]", "result": 17.3, "unit": "%"},
      {"measurement": "TMV efficacy", "setting": "TMV [4]", "result": 60.0, "unit": "%"}
    ]},
    {"molecule": "oligo 137-156: synthesized oligopeptide, amino acids 137-156 of SEQ ID NO: 23 (STSQNDDSTSGTDSTSDSSD; listed as Erwinia amylovora)", "values": [
      {"measurement": "PGE ht>buffer", "setting": "[3]", "result": 7.4, "unit": "%"},
      {"measurement": "TMV efficacy", "setting": "TMV [4]", "result": "−87.7", "unit": "%"}
    ]},
    {"molecule": "oligo 137-166: synthesized oligopeptide, amino acids 137-166 of SEQ ID NO: 23 (STSQNDDSTSGTDSTSDSSDPMQQLLKMFS; listed as Erwinia amylovora)", "values": [
      {"measurement": "PGE ht>buffer", "setting": "[3]", "result": 12.0, "unit": "%"},
      {"measurement": "TMV efficacy", "setting": "TMV [4]", "result": 61.2, "unit": "%"}
    ]},
    {"molecule": "oligo 150-179: synthesized oligopeptide, amino acids 150-179 of SEQ ID NO: 23 (STSDSSDPMQQLLKMFSEIMQSLFGDGQDG; listed as Erwinia amylovora)", "values": [
      {"measurement": "PGE ht>buffer", "setting": "[3]", "result": 10.1, "unit": "%"},
      {"measurement": "TMV efficacy", "setting": "TMV [4]", "result": 72.9, "unit": "%"}
    ]},
    {"molecule": "B1", "values": [
      {"measurement": "heat stable at 100° C. for", "setting": "[5]", "result": "at least 10 minutes"}
    ]},
    {"molecule": "B2", "values": [
      {"measurement": "HR titer", "setting": "[6]", "result": 3.5, "unit": "µg/mL"},
      {"measurement": "PGE ht>buffer @10 μg/ml", "setting": "[3]; tomato seeds soaked overnight at 10 μg/ml, height vs buffer control, >10% needed to pass", "result": 11, "unit": "%"},
      {"measurement": "PGE ht>buffer @20 μg/ml", "setting": "[3]; tomato seeds soaked overnight at 20 μg/ml, height vs buffer control, >10% needed to pass", "result": 13, "unit": "%"},
      {"measurement": "Efficacy of TMV control", "setting": "TMV [7]", "result": "89% and 77%"}
    ]},
    {"molecule": "B3", "values": [
      {"measurement": "HR elicitation (in words)", "setting": "tobacco leaves; dilutions infiltrated into tobacco leaves", "result": "did not"},
      {"measurement": "HR test, dilution 1:2", "setting": "tobacco leaves; preparation diluted 1:2 with MilliQ water, result for each of two plants", "result": "−,−"},
      {"measurement": "HR test, dilution 1:5", "setting": "tobacco leaves; preparation diluted 1:5 with MilliQ water, result for each of two plants", "result": "−,−"},
      {"measurement": "HR test, dilution 1:25", "setting": "tobacco leaves; preparation diluted 1:25 with MilliQ water, result for each of two plants", "result": "−,−"},
      {"measurement": "HR test, dilution 1:125", "setting": "tobacco leaves; preparation diluted 1:125 with MilliQ water, result for each of two plants", "result": "−,−"},
      {"measurement": "HR elicitation", "setting": "tobacco leaves; tobacco leaves", "result": "−"},
      {"measurement": "TMV (% efficacy)", "setting": "TMV [8]", "result": "85% and 85.25%"},
      {"measurement": "PGE(% > buffer ht)", "setting": "tomato", "result": 2.62, "unit": "%"}
    ]}
  ]
}
